In paper PMC9609871, “Binding and Kinetic Analysis of Human Protein Phosphatase PP2A Interactions with Caspase 9 Protein and the Interfering Peptide C9h” (Pharmaceutics, 2022):
pKd: −log10 of the molar value. Peptide text beside a SMILES is read from it. * marks the point of attachment. Biotin = O=C1N[C@H]2[C@H](CS[C@H]2CCCCC(=O)*)N1

Experiments:
PP2A [1] = target: T1, PP2A (Homo sapiens, UniProt P67775); assay: ELISA: PP2A binding to immobilized biotinylated C9h peptides; settings: OD 450 nm
T1 construct: purchased LSBio
T1 sequence (P67775 whole entry): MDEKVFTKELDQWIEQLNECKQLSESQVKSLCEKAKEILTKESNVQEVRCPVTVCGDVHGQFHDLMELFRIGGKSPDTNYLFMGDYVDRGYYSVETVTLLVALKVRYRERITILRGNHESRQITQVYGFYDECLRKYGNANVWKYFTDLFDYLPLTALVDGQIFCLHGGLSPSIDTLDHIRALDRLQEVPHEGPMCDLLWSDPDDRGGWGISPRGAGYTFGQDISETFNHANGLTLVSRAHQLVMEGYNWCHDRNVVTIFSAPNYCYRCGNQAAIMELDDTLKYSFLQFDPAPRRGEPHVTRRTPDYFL
Description: A total of 100 μL of biotinylated peptides diluted at 100 μM in PBS was incubated for 2 h at room temperature in a 96-well Streptavidine-coated plate (Pierce, Illkirch, Strasbourg, France). Wells were washed five times with PBS/0.05% Tween-20 (PBST) and filled with 100 μL of PP2A (Sigma) diluted in PBS/2.5% BSA (Sigma) at the indicated dilutions. The plate was incubated over night at 4 °C and washed five times with PBST. A total of 100 μL of rabbit polyclonal IgG anti-human PP2Aα (Santa Cruz Biotechnology, Heidelberg, Germany) was added at 5 μg/mL in PBS/BSA for 1 h at room temperature. Wells were washed 5 times with PBST and filled with 100 μL of HRP conjugated anti-rabbit IgG (Sigma) diluted at 1:20,000 in PBS/BSA for 1 h at room temperature. Wells were washed 5 times with PBST, and 100 μL of TMB substrate (Pierce) were added and incubated for 15–45 min. The reaction was stopped with 50 μL of 2 N sulphuric acid, and the absorbance was measured at 450 nm on a Multiskan EX plate reader (Thermo Scientific, Illkirch, Strasbourg, France). The Caspase 9 peptide C9h was labelled with biotin at the N-terminal and C-terminal end of the peptide.

PP2A [2] = target: T1, PP2A; assay: BLI: PP2A binding to immobilized biotinylated C9h-Cter peptide (Streptavidin biosensor)
Description: Kinetic measurements of PP2A against biotinylated C9h-Cter peptide were run with Streptavidin biosensors (Fortebio, #18-5019). The initial step consisted of coating the biosensor with the peptide diluted in SD at 100 µM for 180 s in 4 µL (not shown) and was followed by three steps for the kinetic study: (i) initial baseline in 300 µL SD for 30 s was measured; (ii) association of PP2A at the indicated concentrations for 180 s in 4 µL was used; and (iii) dissociation step was then monitored in 300 µL SD for 150 s.
Experiments using empty immunosensors (no ligand loaded) were run as control. Sensorgrams were fit globally to a 1:1 binding model by BLItz Pro software, from which the association (kon) and dissociation (koff) rate constants and apparent affinities (KD) were calculated. X2 is the sum of squared deviations between the actual data point and the fitted curve. Values close to zero indicate a good curve fit. The R2 coefficient of determination is a statistical measure of how well the fitted curve approximate the real data points. Values of R2 near 1 indicate a near-perfect fit.

Caspase 9 = assay: BLI: Caspase 9 analyte binding to immobilized PP2A (Protein A biosensor, anti-PP2A); parameters: species or system human; settings: summary: close to, Caspase 9 analyte on immobilized PP2A; read-out: affinity, both models
Description: Kinetic analysis was performed based on biolayer interferometry (BLI) by using a BLItz instrument (ForteBio, Bayonne, France) at room temperature. Prior to use, each biosensor was hydrated in sample diluent (SD: PBS1X, pH 7.0, 0.02% Tween 20, 0.1% BSA) for at least 10 min. Kinetic measurements of PP2A/Caspase 9 interactions were run with Protein A biosensors (Fortebio) and consisted of seven steps, all performed in reaction buffer, as follows: (i) initial baseline in 300 µL SD for 30 s was measured; (ii) 4 µL of mouse anti-Caspase 9 or rabbit anti-PP2A were immobilized on the sensor for 150 s at 133 nM; (iii) the immunosensor was washed with 300 µL SD for 120 s; (iv) 4 µL of purified ligand Caspase 9 at 566 nM (Origen) or PP2A at 694 nM (LSBio) were loaded on the immunosensor for 150 s; (v) the ligand-coated immunosensor was washed with 300 µL SD for 120 s; (vi) association of purified analytes diluted in SD at the mentioned concentrations was studied for 150 s in 4 µL; and (vii) dissociation step was then monitored in 300 µL SD for 120 s.
Experiments using empty immunosensors (no ligand loaded) were run as control. Sensorgrams were fit globally to a 1:1 binding model by BLItz Pro software, from which the association (kon) and dissociation (koff) rate constants and apparent affinities (KD) were calculated. […]

Row | koff (PP2A [2]; biotinylated C9h-Cter coated at 100 µM, analyte PP2A 463, 556 and 694 nM, pH 7.0, room temperature, dissociation 150 s, global 1:1 fit) [s⁻¹] | dissociation rate of PP2A relative to that with immobilized Caspase 9 (PP2A [2]; immobilized C9h-Cter versus immobilized Caspase 9) | affinity for PP2A compared with whole protein Caspase 9 (PP2A [2]; qualitative comparison) | pKd (Caspase 9) | Compound | signal recognition compared with C9h-Nter (PP2A [1]; PP2A 0.6 μg/mL, duplicate wells) | binding of PP2A to biotinylated peptide (PP2A [1]; peptide 100 μM on streptavidin plate, PP2A 0.6 μg/mL overnight at 4 °C, mean of duplicate wells, representative of two independent experiments, irrelevant biotinylated peptide as negative control)
1 | 0.0087 | approximatively one log higher | slightly lower affinity |  | CC[C@H](C)[C@H](NC(=O)[C@H](CC(=O)O)NC(=O)[C@H](CC(=O)O)NC(=O)[C@H](CC(C)C)NC(=O)[C@@H](NC(=O)[C@H](CCC(=O)O)NC(=O)[C@@H](NC(=O)[C@@H](N)Cc1ccc(O)cc1)C(C)C)[C@@H](C)O)C(=O)N[C@@H](Cc1ccccc1)C(=O)N[C@@H](CCC(=O)O)C(=O)N[C@@H](CCC(N)=O)C(=O)N[C@@H](Cc1c[nH]c2ccccc12)C(=O)N[C@@H](C)C(=O)N[C@@H](Cc1c[nH]cn1)C(=O)N[C@@H](CO)C(=O)N[C@@H](CCC(=O)O)C(=O)N[C@@H](CC(=O)O)C(=O)N[C@@H](CC(C)C)C(=O)N[C@@H](CCCCNC(=O)CCCC[C@@H]1SC[C@@H]2NC(=O)N[C@@H]21)C(=O)O [C9h-Cter] (H-YVETLDDIFEQWAHSEDLK(Biotin)-OH; N-terminus and C-terminus assumed) | stronger signal recognition than that of C9h-Nter | bind to the PP2A protein in a specific manner
2 |  |  |  | ~7.00 | PP2A: protein phosphatase 2A (LSBio), serine/threonine phosphatase |  | 
